The text below walks through data of paper PMC11047712, “Synergistic Antioxidant and Anti-Inflammatory Effects of Phenolic Acid-Conjugated Glutamine–Histidine–Glycine–Valine (QHGV) Peptides Derived from Oysters (Crassostrea talienwhanensis)” (Antioxidants, 2024).

The subject of series [1] is cyclooxygenase-2 (Cox-2) mRNA. Kind of series: Cox-2 mRNA expression in LPS-induced RAW 264.7 cells (qRT-PCR). To be noted: peptide 500 μM pretreated 2 h, LPS 0.1 μg/mL 24 h, normalized to Gapdh, n = 3. It is filed as cell-based, murine.
Protocol: (§2) The peptide and control groups were pretreated with 500 and 0 μM of the peptide solution, respectively, for 2 h, followed by stimulation with 0.1 μg/mL of LPS for 24 h. Total cellular RNA was isolated using the RNeasy Mini Kit (Qiagen, Santa Clara, CA, USA). Total RNA was used to synthesize complementary DNA (cDNA) using the PrimeScript™ 1st strand cDNA synthesis kit (TaKaRa, Kusatsu, Japan). […] The mRNA levels of iNos, Cox-2, and Col1a1 were normalized to that of Gapdh, which is a housekeeping gene. The mRNA levels were quantified using the 2^-ddCt method based on the Ct values.
A further series has as its system phospho-ERK 1/2. Put plainly: LPS-induced phosphorylation of ERK in RAW 264.7 cells (Western blot). Conditions: peptide 500 µM 2 h, LPS 0.1 μg/mL 15 min, densitometry relative to ERK, n = 3. It is filed as cell-based, murine. The protocol:
(§1) HaCaT (3.0 × 10^5 cells/well) and RAW 264.7 (1.5 × 10^5 cells/well) cells were seeded in the wells of a six-well plate. HaCaT and RAW 264.7 cells were treated with the peptide solutions (500 µM) for 24 and 2 h, respectively, and then stimulated with LPS (0.1 μg/mL) for 15 min. The cells were then washed with cold PBS and lysed in a cold lysis buffer. Cell debris was removed after centrifugation at 12,000× g for 30 min at 4 °C. Protein concentration was determined using the bicinchoninic acid (BCA) protein assay. The four-times-concentrated protein-denaturing buffer (1.25 M Tris-HCl (pH 6.8), glycerol, SDS, 2-mercaptoethanol, and 0.4% bromophenol blue) was added to the cell lysate and the mixture was boiled at 100 °C for 5 min. Proteins were separated by electrophoresis on 10% (for MAPKs) or 12% (for collagen) sodium dodecyl sulfate-polyacrylamide gel and electroblotted onto polyvinylidene fluoride membranes. The membranes were blocked with 5% skimmed milk in Tris-buffered saline–Tween (TBS-T) at room temperature for 1 h. After washing, the membranes were incubated overnight in respective primary antibody solutions (anti-phospho-ERK, anti-phospho-JNK, anti-phospho-p38, anti-collagen I, anti-GAPDH or anti-β-actin antibodies) at 4 °C. The membranes were washed with TBS-T and incubated with a horseradish peroxidase-conjugated secondary antibody solution for 1 h at room temperature. They were washed again with TBS-T and PBS and developed using an enhanced chemiluminescence reagent. Images of the immunoblots were scanned with an iBright™ CL1500 Imaging System (Thermo Fisher Scientific, Waltham, MA, USA). The band intensities of phospho-ERK, phospho-JNK, phospho-p38, and collagen I proteins were quantified by densitometric analysis using the ImageJ software 1.8.0 (National Institutes of Health, NIH, Bethesda, MD, USA). To normalize for protein loading, antibodies against β-actin and GAPDH were used, and phospho-ERK 1/2, phospho-JNK, and phospho-p38 phosphorylation levels were expressed relative to those of ERK, p38, and JNK, respectively. The levels of collagen I were normalized to those of GAPDH. Images of raw Western blots are shown in the Supplementary Data.

In the next series the test system is phospho-p38. Put plainly: LPS-induced phosphorylation of p38 in RAW 264.7 cells (Western blot). It is filed as cell-based, murine. Conditions: peptide 500 µM 2 h, LPS 0.1 μg/mL 15 min, densitometry relative to p38, n = 3. The protocol:
HaCaT (3.0 × 10^5 cells/well) and RAW 264.7 (1.5 × 10^5 cells/well) cells were seeded in the wells of a six-well plate. HaCaT and RAW 264.7 cells were treated with the peptide solutions (500 µM) for 24 and 2 h, respectively, and then stimulated with LPS (0.1 μg/mL) for 15 min. The cells were then washed with cold PBS and lysed in a cold lysis buffer. Cell debris was removed after centrifugation at 12,000× g for 30 min at 4 °C. Protein concentration was determined using the bicinchoninic acid (BCA) protein assay. The four-times-concentrated protein-denaturing buffer (1.25 M Tris-HCl (pH 6.8), glycerol, SDS, 2-mercaptoethanol, and 0.4% bromophenol blue) was added to the cell lysate and the mixture was boiled at 100 °C for 5 min. Proteins were separated by electrophoresis on 10% (for MAPKs) or 12% (for collagen) sodium dodecyl sulfate-polyacrylamide gel and electroblotted onto polyvinylidene fluoride membranes. The membranes were blocked with 5% skimmed milk in Tris-buffered saline–Tween (TBS-T) at room temperature for 1 h. […] The band intensities of phospho-ERK, phospho-JNK, phospho-p38, and collagen I proteins were quantified by densitometric analysis using the ImageJ software 1.8.0 (National Institutes of Health, NIH, Bethesda, MD, USA). […]

The test system of a further series is phospho-JNK. Kind of series: LPS-induced phosphorylation of JNK in RAW 264.7 cells (Western blot). It is filed as cell-based, murine. To be noted: peptide 500 µM 2 h, LPS 0.1 μg/mL 15 min, densitometry relative to JNK, n = 3. The procedure:
as §1, with “HaCaT and RAW 264.7 cells were treated with the peptide solutions (500 µM) for 24 and 2 h, respectively, and then stimulated with LPS (0.1 μg/mL) for 15 min.” left out, “The four-times-concentrated protein-denaturing buffer (1.25 M Tris-HCl (pH 6.8), glycerol, SDS, 2-mercaptoethanol, and 0.4% bromophenol blue) was added to the cell lysate and the mixture was boiled at 100 °C for 5 min. Proteins were separated by electrophoresis on 10% (for MAPKs) or 12% (for collagen) sodium dodecyl sulfate-polyacrylamide gel and electroblotted onto polyvinylidene fluoride membranes.” left out, “To normalize for protein loading, antibodies against β-actin and GAPDH were used, and phospho-ERK 1/2, phospho-JNK, and phospho-p38 phosphorylation levels were expressed relative to those of ERK, p38, and JNK, respectively.” left out

Series [2] concerns inducible nitric oxide synthase (iNos) mRNA. Kind of series: iNos mRNA expression in LPS-induced RAW 264.7 cells (qRT-PCR). To be noted: peptide 500 μM pretreated 2 h, LPS 0.1 μg/mL 24 h, normalized to Gapdh, n = 3. In kind it is cell-based, murine.
Protocol: as §2
Series [3] can be described thus: ABTS radical scavenging activity test. It is filed as biochemical. Conditions: for Anti-oxidant Rank (ABTS radical scavenging activity rank) / IC50: Table S1; for Anti-oxidant Rank (ABTS radical scavenging activity rank): rank by IC50, 1 = most active; for IC50: tested 0.000001-1 mM, calculated by GraphPad Prism 5, unit inferred; for IC50 / ABTS radical scavenging activity: 5 min at room temperature, absorbance 734 nm; for ABTS antioxidant activity (in words): various concentrations between 0.000001 and 1 mM; for ABTS radical scavenging activity: 0.01 mM, n = 3.
Protocol: The ABTS radical cation solution was prepared by mixing 1 mL of a 14 mM ABTS solution and 1 mL of 4.9 mM potassium persulfate. The mixture reacted in the dark at room temperature for 16 h. The ABTS solution was diluted with PBS (1:50, v/v), and 190 μL of it reacted with 10 μL of the sample solution in a 96-well plate at room temperature for 5 min. The absorbance at 734 nm was measured using a SpectraMax iD3 microplate reader (Molecular Devices, San Jose, CA, USA), and the ABTS radical scavenging activity rate was calculated using the following equation:ABTS radical scavenging activity (%) = 1 − (absorbance of sample/absorbance of water) × 100

A short description of series [4]: DPPH radical scavenging activity test. In kind it is biochemical. To be noted: various concentrations; 0.1 mM DPPH, 30 min in the dark at room temperature, absorbance 517 nm. The protocol: The DPPH method is based on a mechanism similar to the ABTS method. […] In a 96-well plate, 100 μL of the DPPH solution and 100 μL of the sample were treated and incubated at room temperature in the dark for 30 min. Absorbance at 517 nm was then measured using a SpectraMax iD3 microplate reader (Molecular Devices, San Jose, CA, USA). The solvents used for the samples were methanol for peptide samples and ethanol for phenolic acid samples.

In series [5] the test system is collagen type I alpha 1 chain (Col1a1) mRNA. Kind of series: Collagen I (Col1a1) mRNA level in HaCaT cells (RT-PCR). In kind it is cell-based, human. Conditions: peptide 500 μM, normalized to Gapdh, n = 3. The protocol:
The peptide and control groups were pretreated with 500 and 0 μM of the peptide solution, respectively, for 2 h, followed by stimulation with 0.1 μg/mL of LPS for 24 h. Total cellular RNA was isolated using the RNeasy Mini Kit (Qiagen, Santa Clara, CA, USA). Total RNA was used to synthesize complementary DNA (cDNA) using the PrimeScript™ 1st strand cDNA synthesis kit (TaKaRa, Kusatsu, Japan). The sequences of oligonucleotide primers for amplifying inducible nitric oxide synthase (iNos), cyclooxygenase-2 (Cox-2), and collagen type I alpha 1 chain (Col1a1) synthesized from Bioneer (Daejeon, Republic of Korea) and glyceraldehyde-3-phosphate dehydrogenase (Gapdh) synthesized from Macrogen (Seoul, Republic of Korea) are listed in Table 1. […] The mRNA levels of iNos, Cox-2, and Col1a1 were normalized to that of Gapdh, which is a housekeeping gene. The mRNA levels were quantified using the 2^-ddCt method based on the Ct values.

For series [6], the system named is collagen I (COL1A1) protein. Kind of series: Collagen I (COL1A1) protein level in HaCaT cells (Western blot). It is filed as cell-based, human. To be noted: peptide 500 µM, 24 h, Western blot densitometry normalized to GAPDH, n = 3. The protocol: as §1
The test system of the next series is HaCaT cells. Kind of series: Cell viability (MTT assay) in HaCaT cells. It is filed as cell-based, human. To be noted: 0.032-500 µM, 24 h. The procedure:
Cell viability was assessed using an MTT assay. HaCaT cells (1.0 × 10^4 cells/mL) were seeded in a 96-well plate and cultured for 24 h. Thereafter, the cells were treated with the peptide solution (0–500 µM) for 24 h. […] The MTT solution was prepared by dissolving it in phosphate-buffered saline (PBS) at a concentration of 5 mg/mL. 10 μL of the prepared MTT solution was added to each well, and the plate was incubated for 4 h. After removing the culture medium, 200 μL of dimethyl sulfoxide (DMSO) was added to each well to solubilize any deposited formazan. The absorbance at 560 nm was measured using an Epoch microplate Spectrophotometer (BioTek, Winooski, VT, USA).

`C[C@@H]1C[C@H]2[C@@H]3CCC4=CC(=O)C=C[C@]4(C)[C@@]3(F)[C@@H](O)C[C@]2(C)[C@@]1(O)C(=O)CO` [DEX, Dexamethasone, reference compound]: the “reduction of LPS-induced Cox-2 mRNA level” value in series [1] is given as ~91%. Moreover, the “decrease of p-ERK level” value in the series with phospho-ERK 1/2 is “markedly reduced”. Besides, the “decrease of p-p38 level” value with phospho-p38 is given as “markedly reduced”. In addition, in the series on phospho-JNK, the “decrease of p-JNK level” value is recorded as “markedly reduced”. In addition, the “reduction of LPS-induced iNos mRNA level” value in series [2] is “approximately 80%”.
As for `O=C(O)c1cc(O)c(O)c(O)c1` [Gallic acid, gallic acid, reference compound], in [3], the “Anti-oxidant Rank (ABTS radical scavenging activity rank)” value (“Anti-oxidant Rank” for short) was found to be 1, the concentration for half-maximal inhibition (IC50) was 2.49 µM and the “ABTS antioxidant activity (in words)” value is on record as “highest antioxidant activity”.
For `O=C1O[C@H]([C@@H](O)CO)C(O)=C1O` [L-ascorbic acid, reference compound], in series [3], the “ABTS radical scavenging activity” value was determined as 20%, the “Anti-oxidant Rank” value is on record as 7 and the half-inhibitory concentration (IC50) was 23.8 µM.
Take `COc1cc(C(=O)O)ccc1O` [vanillic acid, reference compound]: the “DPPH radical scavenging activity (in words)” value in series [4] was “weak antioxidant activity”.
With “N-(1-oxohexadecyl) glycyl-L-histidyl-L-lysine [PTP-1, reference compound]”, the “increase of collagen I mRNA level compared with the negative control group” value in [5] turned out to be 135%.
For the compound “QHGV [glutamine–histidine–glycine–valine]”, in [1], the “reduction of LPS-induced Cox-2 mRNA level” value is on record as “reduced”. In series [3], the “Anti-oxidant Rank” value is 8 and the “ABTS antioxidant activity (in words)” value is “did not exhibit high antioxidant activity”. Moreover, the “increase of collagen I mRNA level compared with the negative control group” value in series [5] is listed as 26%. Moreover, the “increase of collagen I protein level” value in series [6] came out at 147%. Further, the “cytotoxicity (in words)” value in the series on HaCaT cells is recorded as “no cytotoxicity”. In addition, the “reduction of LPS-induced iNos mRNA level” value in series [2] is recorded as “reduced”.
Turning to caffeoyl-QHGV [Ca-QHGV], the “reduction of LPS-induced Cox-2 mRNA level” value in series [1] turned out to be 8%. In series [3], the “ABTS radical scavenging activity” value worked out at 33%, the “Anti-oxidant Rank” value amounted to 5 and the IC50 is 16.7 µM. In the series with phospho-ERK 1/2, the “decrease of p-ERK level” value stood at 9%. For the same compound, the “decrease of p-p38 level” value in the series with phospho-p38 came to 5%. Further, the “decrease of p-JNK level” value in the series with phospho-JNK is on record as 10%. Besides, the “increase of collagen I protein level” value in [6] came to 316%. Besides, the “reduction of LPS-induced iNos mRNA level” value in [2] is listed as 26%.
Turning to feruloyl-QHGV [Fe-QHGV], in [1], the “reduction of LPS-induced Cox-2 mRNA level” value came to 11%. In [3], the “ABTS radical scavenging activity” value worked out at 31%, the “Anti-oxidant Rank” value was 6 and the IC50 was 17.8 µM. Further, the “decrease of p-JNK level” value with phospho-JNK is 23%. The “increase of collagen I protein level” value in [6] is 457%. Besides, in series [2], the “reduction of LPS-induced iNos mRNA level” value is listed as “did not significantly affect”.
With “glycyl-L-histidyl-L-lysine-Cu (II) [GHK-Cu, reference compound]”, the “reduction of LPS-induced Cox-2 mRNA level” value in [1] was 24%. In addition, the “reduction of LPS-induced iNos mRNA level” value in series [2] is 45%.
Regarding sinapoyl-QHGV [Si-QHGV], the “reduction of LPS-induced Cox-2 mRNA level” value in series [1] was 15%. For the same compound, the “ABTS radical scavenging activity” value in [3] is 27%. Also, the “decrease of p-ERK level” value with phospho-ERK 1/2 was 5%. For the same compound, the “increase of collagen I protein level” value in series [6] came out at 363%. The “reduction of LPS-induced iNos mRNA level” value in series [2] is on record as “did not significantly affect”.
Regarding vanilloyl-QHGV [Va-QHGV], the “reduction of LPS-induced Cox-2 mRNA level” value in series [1] is listed as 16%. In series [3], the “ABTS radical scavenging activity” value is 34%, the “Anti-oxidant Rank” value was determined as 4 and the half-maximal inhibitory concentration (IC50) is 16.4 µM. Also, the “decrease of p-ERK level” value with phospho-ERK 1/2 is 24%. For the same compound, the “DPPH radical scavenging activity (in words)” value in [4] is “did not exhibit antioxidant effects”. Besides, the “increase of collagen I protein level” value in series [6] was 163%. For the same compound, in [2], the “reduction of LPS-induced iNos mRNA level” value was “did not significantly affect”.
Take “β-alanyl-L-histidine [carnosine, reference compound]”: the “reduction of LPS-induced Cox-2 mRNA level” value in series [1] is given as “no significant effect”. Besides, in series [2], the “reduction of LPS-induced iNos mRNA level” value is listed as “no significant effect”.
In the case of “γ-L-glutamyl-L-cysteinyl-glycine [Glutathione, reference compound]”, in [3], the “Anti-oxidant Rank” value was 3 and the IC50 was 14.7 µM.
